Series [1] concerns the target T1, pregnane X receptor (PXR) (Homo sapiens, UniProt O75469).
T1 construct: gene NR1I2; PXR-LBD (132-188) + (189-434)
T1 sequence (O75469 132-188): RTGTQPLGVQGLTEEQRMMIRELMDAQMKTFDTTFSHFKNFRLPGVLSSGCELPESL
T1 sequence (O75469 189-434): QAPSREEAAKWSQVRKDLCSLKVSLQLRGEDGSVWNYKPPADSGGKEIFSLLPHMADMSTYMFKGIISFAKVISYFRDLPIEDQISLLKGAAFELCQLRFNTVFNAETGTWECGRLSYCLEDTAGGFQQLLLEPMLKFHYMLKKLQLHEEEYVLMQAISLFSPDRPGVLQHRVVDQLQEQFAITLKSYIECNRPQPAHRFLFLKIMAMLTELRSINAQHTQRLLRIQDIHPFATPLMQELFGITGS
Description: mammalian two-hybrid PXR-LBD assembly assay in HepG2. The series is classed as cell-based. The settings on record: hepg2, 10 µM.

Series [2] addresses T2, pregnane X receptor (PXR) (Homo sapiens, UniProt O75469).
T2 construct: gene NR1I2; PXR-LBD (132-188) + (189-434) assembly; LBD (108-434) in co-factor assays
T2 sequence (O75469 108-434): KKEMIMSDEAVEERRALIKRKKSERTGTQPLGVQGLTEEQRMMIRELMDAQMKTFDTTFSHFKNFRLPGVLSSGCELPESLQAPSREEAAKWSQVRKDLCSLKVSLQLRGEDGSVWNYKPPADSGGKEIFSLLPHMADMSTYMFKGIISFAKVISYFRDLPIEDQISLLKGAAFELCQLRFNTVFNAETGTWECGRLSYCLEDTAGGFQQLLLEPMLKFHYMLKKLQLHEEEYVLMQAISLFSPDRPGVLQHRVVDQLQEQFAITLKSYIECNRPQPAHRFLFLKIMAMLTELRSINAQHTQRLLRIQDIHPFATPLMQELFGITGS
Description: mammalian two-hybrid PXR-LBD assembly assay in HepG2; NCOR2 release, NCOA1 recruitment; SPA70-blocked CYP3A4 reporter. In kind it is cell-based. The settings on record: hepg2, 10 µM.

As to MolPort-000-431-925 [compound 22], in series [1], the “Measured Activity ^1” value is 91.00 % of rifampicin activity at 10 µM.

With MolPort-000-431-927 [compound 42], in series [2], the “Measured Activity ^1” value is on record as 115.84 % of rifampicin activity at 10 µM.

For the substance MolPort-000-431-934 [compound 43], the “Measured Activity ^1” value in series [1] was 71.67 % of rifampicin activity at 10 µM.

Take MolPort-002-216-386 [compound 53]: the “Measured Activity ^1” value in series [2] is 84.18 % of rifampicin activity at 10 µM.

MolPort-006-629-818 [compound 34]: in series [1], the “Measured Activity ^1” value is 100.91 % of rifampicin activity at 10 µM.

Regarding MolPort-006-630-110 [compound 39], the “Measured Activity ^1” value in series [1] is 80.37 % of rifampicin activity at 10 µM.

In the case of MolPort-006-630-224 [compound 25], the “Measured Activity ^1” value in series [2] is 136.87 % of rifampicin activity at 10 µM.

The values are drawn from article PMC9029776, “Development and Experimental Validation of Regularized Machine Learning Models Detecting New, Structurally Distinct Activators of PXR” (Cells, 2022).
